# From article PMC6393386 (Frontiers in Pharmacology, 2019)
# What was measured:
# [1] = target: T1, Smo (smoothened), wild type hSmo (Homo sapiens, UniProt Q99835); test: BODIPY-cyclopamine competition in hSmo-transfected HEK293 cells (microscopy and flow cytometry); type: cell-based
# T1 construct: wild type hSmo expressed in HEK293 cells
# [2] = target: T1, Smo (smoothened), wild type hSmo; test: BODIPY-cyclopamine competition in hSmo-transfected HEK293 cells (positive control); type: cell-based
# T1 sequence (Q99835 28-787): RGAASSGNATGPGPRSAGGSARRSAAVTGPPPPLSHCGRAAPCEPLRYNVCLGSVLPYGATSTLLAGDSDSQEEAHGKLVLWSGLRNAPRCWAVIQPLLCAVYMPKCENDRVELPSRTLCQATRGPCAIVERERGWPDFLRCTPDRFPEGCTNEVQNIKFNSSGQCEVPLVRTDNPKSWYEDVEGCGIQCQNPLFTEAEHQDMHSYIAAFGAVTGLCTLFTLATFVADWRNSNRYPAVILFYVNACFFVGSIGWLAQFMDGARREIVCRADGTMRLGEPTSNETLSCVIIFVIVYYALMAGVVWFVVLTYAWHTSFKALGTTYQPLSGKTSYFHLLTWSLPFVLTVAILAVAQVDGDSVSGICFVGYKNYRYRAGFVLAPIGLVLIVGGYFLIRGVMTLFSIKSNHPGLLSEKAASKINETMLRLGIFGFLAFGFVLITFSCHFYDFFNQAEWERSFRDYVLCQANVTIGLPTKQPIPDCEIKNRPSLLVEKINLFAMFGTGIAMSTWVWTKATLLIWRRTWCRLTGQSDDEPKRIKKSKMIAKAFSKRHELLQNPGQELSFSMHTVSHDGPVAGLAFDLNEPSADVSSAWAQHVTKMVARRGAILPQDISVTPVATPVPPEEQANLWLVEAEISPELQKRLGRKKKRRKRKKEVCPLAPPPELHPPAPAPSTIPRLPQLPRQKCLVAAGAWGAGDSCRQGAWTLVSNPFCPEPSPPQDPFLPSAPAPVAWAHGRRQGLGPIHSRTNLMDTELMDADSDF
Compound,BODIPY-cyclopamine competition in hSmo-transfected HEK293 cells (microscopy and) [1],BODIPY-cyclopamine competition in hSmo-transfected HEK293 cells (positive contro) [2]
Cc1c(-c2ccnn2C)nnc(N2CCC(NC(=O)c3ccc(F)cc3C(F)(F)F)CC2)c1C [L-4],there was a dose-dependent replacement of BODIPY-cyclopamine by L-4,–
CC1=C2C[C@H]3[C@@H](CC=C4C[C@@H](O)CC[C@@]43C)[C@@H]2CC[C@]12O[C@@H]1C[C@H](C)CN[C@H]1[C@H]2C [cyclopamine],–,"It was similar to the positive control, cyclopamine"
